Patent US20240400986A1, “MEMBRANE BOUND COMPOSITIONS AND METHODS RELATING TO SAME” (FLAGSHIP PIONEERING INNOVATIONS VII, LLC, priority 2021, published 2024)
Like-named read-outs stand apart in the source and are kept apart here.

Legend:
[1] = system: neuronal cell line derived from human neuroblastoma
[2] = system: neuronal cell line derived from human neuroblastoma; experiment: Small molecule compound screen of gigasome production in neuronal monocultures; conditions: for fold induction at 0.01 µM / fold induction at 0.1 µM / fold induction at 1 µM / fold induction at 10 µM: Homo sapiens, read-out: Fold Change of Gigasomes Produced vs. DMSO; for fold induction at 0.01 µM / fold induction at 0.1 µM / fold induction at 1 µM / fold induction at 10 µM / downregulation of gigasome production: 24 h; for Number of Gigasomes Produced / Fold Change of Gigasomes Produced vs. DMSO / downregulation of gigasome production: neuronal cells; for Number of Gigasomes Produced / Fold Change of Gigasomes Produced vs. DMSO: 24 hours; for downregulation of gigasome production: doses 10-10,000 nM
Source text: To quantify and characterize gigasome production using microscopy, while tracking cell viability/phenotype, a multi-readout system was developed that allowed simultaneous analysis of gigasomes harvested from cell culture media supernatants and respective gigasome producing cell viability. […] For the screening, a total of 99 compounds (TargetMol) were divided in 5 groups. Each group included an untreated condition, a vehicular DMSO control, and a known high-gigasome producing condition to comparatively study gigasome production rates. As a cell death control group, 500 nM Staurosporine was added to induce apoptosis. Cultures were incubated for 24 hours under gigasome inducing conditions at concentrations ranging between 10 nM and 10,000 nM. Before the end of the treatment, live neuronal cultures were imaged. The Zeiss ZEN Blue software was used to distribute imaging fields of view (positions) to create an unbiased imaging sample of a well. 5 images were taken using a Zeiss LSM 900 confocal microscope. […] The BioApps ZEN software package was used to perform cell nucleus segmentation and counting. After 24 hours, gigasomes were harvested from the cell culture media by gently removing from the top of each 96-well ⅔ of the total volume without disturbing the cell layer (containing the settled gigasomes) and by adding to each well the same amount of PBS. The wells were washed twice gently, and the gigasome-containing media/PBS wash was transferred into the well of a 384-well glass bottom plate. Cells remaining in the 96-well plates were assessed for viability using CellTiter-Glo (Promega).
For gigasome analysis in 384-well plates, the Zeiss ZEN Blue software was used to distribute positions to create an unbiased imaging sample of a well. 6 images per well were taken using a Zeiss LSM 900 confocal microscope.
A watershed binary segmentation step was performed to separate grouped objects. For each particle in the mask, characteristic parameters of the particle were calculated and saved.
Particles of interest were identified by thresholding by area and circularity. […] Circularity, defined by the formula 4pi(area/perimeter^2, was set to be between 0.8 and 1, where a value of 1.0 is a perfect circle, and a value of 0 is a line. Gigasomes were identified from the particles of interest by thresholding by mean nuclear signal. The nuclear signal threshold was set using a value equal to one fourth of a threshold value calculated by the Li auto-threshold algorithm applied to the distribution of all particles of interest. Particles of interest with nuclear signal below this value were considered “negative” for nuclear material and were identified as gigasomes. A sampling factor was calculated to extrapolate the total quantity of a type of object (particles, particles of interest, gigasomes) in the well. The sampling factor was the percentage of the well's area that was imaged. […] The normalized quantity or distribution of objects was described as a quantity or distribution of objects per 1000 cells.

[3] = system: cardiomyocytic cell line derived from human ventricular heart tissue; experiment: Small molecule compound screen of gigasome production in cardiomyocytic monocultures; conditions: cardiomyocytes;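 note: gigasomes shed into the culture medium were imaged by confocal microscopy and counted as round particles lacking nuclear signal, extrapolated to the whole well, fold change is relative to DMSO vehicle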
[4] = Table 23 (down-regulators), dose 10 nM
[5] = Table 23 (down-regulators), dose 100 nM
[6] = Table 23 (down-regulators), dose 1000 nM
[7] = Table 23 (down-regulators), dose 10000 nM
[8] = neuronal cells, dose 10 nM, 24 hours
[9] = neuronal cells, dose 100 nM, 24 hours
[10] = neuronal cells, dose 1000 nM, 24 hours
[11] = Table 22, dose 100 nM, 24 hours
[12] = neuronal cells, dose 10000 nM, 24 hours

Structure (SMILES)	fold induction at 0.01 µM [2]	fold induction at 0.1 µM [2]	fold induction at 1 µM [2]	Number of Gigasomes Produced ([2]; dose 10 nM)	Number of Gigasomes Produced ([2]; dose 100 nM)	Number of Gigasomes Produced ([2]; dose 1000 nM)	Fold Change of Gigasomes Produced vs. DMSO ([2]; dose 100 nM)	Fold Change of Gigasomes Produced vs. DMSO ([2]; dose 1000 nM)	Number of Gigasomes Produced ([2]; dose 10000 nM)	Viability [1, 8] [%]	Viability [1, 9] [%]	Viability [1, 10] [%]	other results
Cc1ncc(-c2ccnc(Nc3ccc(S(C)(=O)=O)cc3)n2)n1C(C)C [AZD-5438]	1.5 to 1.75	1.25 to 1.5	1 to 1.25	45-55	35-45	35-45							Viability ([1]; human, 24 h, 10 nM): 100%; Viability ([1]; human, 24 h, 100 nM): 100%; Viability ([1]; human, 24 h, 1000 nM): 100%
COC(=O)C1=C(C)NC(C)=C([N+](=O)[O-])C1c1ccccc1C(F)(F)F (stereo not shown) [Bay K 8644]				35-45	35-45	35-45	1.25-1.5	1.25-1.5					Fold Change of Gigasomes Produced vs. DMSO ([2]; dose 10 nM): 1.25-1.5; Fold Change of Gigasomes Produced vs. DMSO [3, 4]: 0.75-1.0; Number of Gigasomes Produced [3, 4]: >150; Fold Change of Gigasomes Produced vs. DMSO [3, 5]: 0.5-0.75; Number of Gigasomes Produced [3, 5]: 120-135; Fold Change of Gigasomes Produced vs. DMSO [3, 6]: 0.75-1.0; Number of Gigasomes Produced [3, 6]: 105-120; Fold Change of Gigasomes Produced vs. DMSO [3, 7]: 0.25-0.5; Number of Gigasomes Produced [3, 7]: 75-90
C=C(C)[C@@H]1CC[C@]2(C(=O)O)CC[C@]3(C)[C@H](CC[C@@H]4[C@@]5(C)CC[C@H](O)C(C)(C)[C@@H]5CC[C@]43C)[C@@H]12 [Betulinic acid]	0.5 to 0.75	1.25 to 1.5		<35	55-65				55-65				Viability ([1]; human, 24 h, 10 nM): 100%; Viability ([1]; human, 24 h, 100 nM): 100%; Viability ([1]; human, 24 h, 10000 nM): 100%; fold induction at 10 µM [2]: 1.5 to 1.75
O=C1CSC(c2ccccc2Cl)c2cc(Cl)ccc2N1 (stereo not shown) [CGP37157, reference compound]													Fold Change of Gigasomes Produced vs. DMSO [3, 4]: 0.75-1.0; Number of Gigasomes Produced [3, 4]: 120-135; Fold Change of Gigasomes Produced vs. DMSO [3, 5]: 0.75-1.0; Number of Gigasomes Produced [3, 5]: 105-120; Fold Change of Gigasomes Produced vs. DMSO [3, 6]: 0.25-0.5; Number of Gigasomes Produced [3, 6]: 50-75; Fold Change of Gigasomes Produced vs. DMSO [3, 7]: 0.25-0.5; Number of Gigasomes Produced [3, 7]: 50-75; downregulation of gigasome production ([3]; doses 10-10,000 nM, 24 h): dose-dependent downregulation
O=C(c1ccc2nccnc2c1)N1CCCCC1 [CX516]	0.75 to 1	1.25 to 1.5	1 to 1.25	<35	45-55	35-45				100	100	100	
C[C@H](NC(=O)Cc1cc(F)cc(F)c1)C(=O)N[C@H](C(=O)OC(C)(C)C)c1ccccc1 [DAPT]													Fold Change of Gigasomes Produced vs. DMSO ([3]; Table 22, dose 10 nM, 24 hours): 1.0-1.25; Number of Gigasomes Produced ([3]; Table 22, dose 10 nM, 24 hours): 200-225; Fold Change of Gigasomes Produced vs. DMSO [3, 11]: 1.25-1.5; Number of Gigasomes Produced [3, 11]: 250-275
CC1=NS(=O)(=O)c2cc(Cl)ccc2N1 [Diazoxide]		1.5 to 1.75	1.25 to 1.5		45-55	35-45			35-45				Viability ([1]; human, 24 h, 100 nM): 100%; Viability ([1]; human, 24 h, 1000 nM): 100%; Viability ([1]; human, 24 h, 10000 nM): 100%; fold induction at 10 µM [2]: 1 to 1.25
COC(=O)c1ccccc1NC(=O)c1ccc(F)cc1 [EXO1, reference compound]				35-40	20-25	10-15	0.5-0.75	0.25-0.5	10-15	100	100	100	Viability [1, 12]: 100%; Fold Change of Gigasomes Produced vs. DMSO ([2]; dose 10 nM): 0.75-1.0; Fold Change of Gigasomes Produced vs. DMSO ([2]; dose 10000 nM): 0.25-0.5; downregulation of gigasome production [2]: dose-dependent downregulation
CCCn1cnc2c(NCc3ccc(C)s3)nc(N[C@H](CC)CO)nc21 [GV-58, reference compound]				25-30	20-25	20-25	0.75-1.0	0.75-1.0	10-15	100	100	100	Viability [1, 12]: >75%; Fold Change of Gigasomes Produced vs. DMSO ([2]; dose 10 nM): 0.75-1.0; Fold Change of Gigasomes Produced vs. DMSO ([2]; dose 10000 nM): 0.25-0.5; downregulation of gigasome production [2]: dose-dependent downregulation
O=C(/C=C/c1ccc(/C=C/C(=O)Nc2ccc(C3=NCCN3)cc2)cc1)Nc1ccc(C2=NCCN2)cc1 [GW4869, reference compound]				30-35	35-40	15-20	0.75-1.0	0.25-0.5	5-10				Fold Change of Gigasomes Produced vs. DMSO ([2]; dose 10000 nM): 0.25-0.5; downregulation of gigasome production [2]: dose-dependent downregulation
CCN(CCO)CCCC(C)Nc1ccnc2cc(Cl)ccc12 (stereo not shown) [Hydroxychloroquine]	1 to 1.25	0.75 to 1	0.75 to 1	30-35	20-25	25-30			20-25	100	100	>75	Viability [1, 12]: >75%; fold induction at 10 µM [2]: 0.75 to 1
